Holding throughout (assay): inhibition of tumour cell growth, NCI panel, 48 h
For assay [1], the system named is CAKI-1 renal.
Assay [2] relates to CCRF-CEM leukemia.
For assay [3], the system named is HL-60(TB) leukemia.
In assay [4] the test system is HOP-62 NSCLC.
Assay [5] deals with HOP-92 NSCLC.
The subject of assay [6] is NCI-H460 lung.
The subject of assay [7] is SF-539 CNS.
Assay [8] has as its system SN12C renal.
In assay [9] the test system is U251 CNS.
For assay [10], the system named is SK-MEL-28 melanoma.

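Method: 48-hour compound exposure of cells in 96-well plates, five concentrations, linear interpolation of endpoints. Abbreviation: GI50, concentration required for 50% inhibition of growth. The concentration for full growth arrest is given as TGI.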 Where only a bound is given, the exact number is not on record here.

Consider `c1ccc(C2OC3(CCC[C@H]4C[C@H]43)O[C@H]2c2ccccc2)cc1` (some centres not stated), for which the TGI is 74.7 µM in assay [1]; 49.9 µM in [2]; 41.1 µM in assay [3]; more than 100 µM in assay [4]; 66.2 µM in assay [5]; more than 100 µM in [6]. Further, the TGI in [7], in assay [8] and in assay [9] was more than 100 µM throughout.
Turning to `O=C1C(c2ccc(Br)cc2)=[N+]([O-])c2ccccc21`, the TGI in assay [2] was found to be 22.6 µM; in assay [3], 12.4 µM; in assay [4], 68.8 µM; in assay [5], 20.1 µM; in assay [6], 34.8 µM; in [7] it was 34.7 µM. The TGI amounted to 35.2 µM in assay [10], 29.6 µM in [8] and 27.9 µM in [9].
Regarding `COc1cc(Nc2ncc(-c3ccccc3)o2)cc(OC)c1`, the GI50 in assay [1] is more than 19.2 µM; in [2], more than 25 µM; in assay [3], more than 25 µM; in [4] it was more than 25 µM; in [5], more than 25 µM; in [6] it was more than 20.4 µM. The GI50 in assay [7], in assay [10], in assay [8] and in [9] was more than 25 µM each time. Further, the TGI in assay [1], in assay [2], in [3], in assay [4], in [5] and in [6] was more than 25 µM each time. Besides, the TGI in assay [7], in assay [10], in assay [8] and in [9] was more than 25 µM each time.
In the case of `COc1ccc(C/C(=C(\C)c2ccc(OCCN3CCCC3)cc2)c2ccc(OCCN3CCCC3)cc2)cc1`, the GI50 in assay [1] was 1.66 µM; in assay [2], 1.8 µM; in assay [3], 1.67 µM; in assay [4] it was 2.18 µM; in [5] it was 1.96 µM; in assay [6], 2.08 µM. Also, the GI50 in assay [7] was 1.8 µM; in [10], 1.82 µM; in assay [8] it was 1.67 µM; in [9] it was 1.8 µM. Further, the TGI worked out at 3.09 µM in assay [1]; 4.51 µM in assay [2]; 3.63 µM in assay [3]; 7.02 µM in [4]; 8.25 µM in assay [5]; 4.17 µM in assay [6]. Moreover, the TGI worked out at 3.25 µM in assay [7], 3.3 µM in assay [10], 3.2 µM in [8] and 3.32 µM in [9].
As to `COCc1c(-c2cc3cc(C)cc(OC)c3s2)c2c(N)ncnn2c1CN1CCNC(=O)C1`, the GI50 in [1] was 4.88 µM; in assay [2], 3.42 µM; in assay [3], 8.71 µM; in assay [4], 2.6 µM; in [5], 1.29 µM; in assay [6], 4.05 µM. Further, the GI50 in [7] was 2.31 µM; in assay [10], 9.38 µM; in [8], 4.02 µM; in [9], 3.86 µM. The TGI in assay [1] was 44.2 µM; in assay [2] it was 53.8 µM; in [3], 32.7 µM; in [4], 15.9 µM; in assay [5] it was 5.92 µM; in [6], more than 100 µM. Also, the TGI in assay [7] came out at 14.4 µM; in assay [10] it was 70.3 µM; in assay [8] it was 67.1 µM; in assay [9], 79.7 µM.
On to `COc1ncc(Nc2ncc([C@@H](C)N3CCN(S(C)(=O)=O)CC3)cc2-c2nc(C)nc(N)n2)cc1F`, for which the GI50 in assay [1] is 0.194 µM; in assay [2], 0.145 µM; in assay [3] it was 0.0214 µM; in assay [4] it was 0.192 µM; in assay [5], less than 0.01 µM; in [6] it was 0.135 µM. Moreover, the GI50 in assay [7] was 0.0876 µM; in [10], 0.0534 µM; in [8], 0.0686 µM; in [9], 0.385 µM. Also, the TGI in assay [1] is more than 100 µM; in [2] it was more than 54.1 µM; in [3] it was more than 57.3 µM; in [4], 75.1 µM; in assay [5], 1.19 µM; in assay [6] it was more than 100 µM. The TGI in assay [7] was 1.45 µM; in assay [10] it was more than 36.6 µM; in assay [8], more than 33.6 µM; in assay [9], more than 100 µM.
As to `COc1ccc2c(c1OC)CO[C@@H]2[C@H]1c2c(cc3c(c2OC)OCO3)CCN1S(=O)(=O)c1cn(C)cn1`, the GI50 in assay [1] was 1.01 µM; in assay [2] it was 0.944 µM; in [3] it was 1.66 µM; in assay [4], 1.88 µM; in assay [5], 0.783 µM; in assay [6], 2.87 µM. For the same molecule, the GI50 in assay [7] was 1.57 µM; in assay [10] it was 5.4 µM; in assay [8] it was 3.9 µM; in assay [9] it was 2.24 µM. Further, the TGI is more than 100 µM in [1]; more than 100 µM in assay [2]; 4.9 µM in [3]; more than 100 µM in assay [4]; 87.4 µM in assay [5]; 26.8 µM in assay [6]. Moreover, the TGI in [7] was 5.66 µM; in [10], more than 100 µM; in assay [8], more than 100 µM; in assay [9] it was more than 100 µM.
For the molecule `CC1/C(=N\O)CC(c2ccccc2)N(C)C1c1ccccc1` (configuration not stated), the TGI in assay [1], in assay [2], in assay [3], in assay [4], in assay [5] and in assay [6] was more than 100 µM each time. Further, the TGI in assay [7], in [10], in assay [8] and in assay [9] was more than 100 µM each time.
Turning to `CCOCCCn1c2c(c3c(O)cccc31)C(=O)c1ccccc1-2`, the GI50 in assay [1] was 21.6 µM; in [2], 25.1 µM; in assay [3], 13.2 µM; in assay [4], 17.8 µM; in [5], 16.8 µM; in [6], 21.6 µM. In addition, the GI50 is 24.7 µM in [7], 22.5 µM in [10], 11.5 µM in assay [8] and 23.7 µM in [9]. For the same molecule, the TGI came to 64.1 µM in assay [1]; 88.6 µM in assay [2]; 31.4 µM in assay [3]; 48 µM in [4]; 43.3 µM in assay [5]; 63.9 µM in [6]. Besides, the TGI in assay [7] is 63.3 µM; in [10], 46.3 µM; in assay [8], 25.5 µM; in [9], 62.5 µM.
`Cc1cc2c(C)n(Cc3ccccc3Cl)nc2c(C(=O)O)c1C`: the TGI in assay [2], in assay [3], in assay [4], in assay [5], in assay [6] and in assay [7] was more than 100 µM each time. For the same molecule, the TGI in assay [10], in [8] and in [9] was more than 100 µM throughout.
On to `CC1C(C)N(C(=O)CCl)c2ccccc2N1C(=O)CCl` (configuration not stated), for which the GI50 is 0.186 µM in assay [1]; 0.15 µM in [2]; 0.211 µM in assay [3]; 1.62 µM in assay [4]; 0.709 µM in [5]; 1.74 µM in assay [6]. In addition, the GI50 was 1.4 µM in assay [7], 0.838 µM in [10], 0.793 µM in [8] and 0.755 µM in assay [9]. The TGI worked out at 0.355 µM in assay [1]; 0.629 µM in [2]; 0.535 µM in [3]; 3.52 µM in assay [4]; 1.84 µM in assay [5]; 3.98 µM in [6]. Also, the TGI in [7] worked out at 2.89 µM; in [10] it was 2.9 µM; in assay [8], 3.05 µM; in [9] it was 2.14 µM.
Consider `O=C(CC1OC(O)C(Cl)=C1Cl)c1cccnc1` (configuration not stated), for which the TGI is more than 100 µM in assay [1]; more than 100 µM in assay [2]; more than 100 µM in assay [3]; more than 77.7 µM in assay [4]; more than 100 µM in assay [5]; more than 100 µM in assay [6]. The TGI in assay [7] was 1.41 µM; in [10], more than 100 µM; in assay [8] it was more than 100 µM; in [9], more than 57.7 µM.
For the molecule `COC(=O)[C@H](Cc1cnc[nH]1)NC(=O)[C@@H](NC(=O)Nc1cc(C(F)(F)F)cc(C(F)(F)F)c1)C(C)C`, the GI50 in [1] is 15.9 µM; in assay [2], 14.7 µM; in assay [3], 20.2 µM; in [4] it was 19 µM; in [5], 5.33 µM; in [6], 18.7 µM. Besides, the GI50 is 17 µM in assay [7], 15.7 µM in assay [10] and 14.5 µM in assay [8]. For the same molecule, the TGI in assay [1] was 32.7 µM; in [2], 35.6 µM; in assay [3], 39.3 µM; in assay [4], 33.7 µM; in [6], 37.3 µM; in assay [7], 32.3 µM. Besides, the TGI in [10] is 29.2 µM; in assay [8], 28 µM.
Regarding `CN(C)C(=N/O)/C(=N\O)N(C)C`, the TGI in assay [1], in assay [2], in assay [3], in assay [4], in assay [5] and in assay [6] was more than 100 µM in each case. The TGI in assay [7], in assay [10], in assay [8] and in assay [9] was more than 100 µM in each case.
Consider `COc1ccc(-c2nc(-c3ccc(C)cc3)cn3ccnc23)cc1`, for which the GI50 in [1] was 4.78 µM; in assay [2], 5.47 µM; in [3] it was 2.58 µM; in [4], 13.9 µM; in [5] it was 16.2 µM; in [6], 2.53 µM. Besides, the GI50 in [7] is 5.73 µM; in assay [8], 6.12 µM; in assay [9] it was 3.42 µM. Besides, the TGI in [1] was more than 50 µM; in assay [2] it was more than 50 µM; in [3], more than 50 µM; in assay [4] it was more than 50 µM; in assay [5], more than 50 µM; in [6], 20.1 µM. The TGI was 31 µM in [7], more than 50 µM in assay [8] and more than 50 µM in assay [9].
Turning to `O=C(/C=C\c1ccc([N+](=O)[O-])cc1)c1ccccc(=O)c1O`, the TGI in [1] is 4.61 µM; in [2], 0.532 µM; in assay [3] it was 1.63 µM; in [4], 15.5 µM; in assay [5], 7.77 µM; in [6], 3.64 µM. The TGI is 3.75 µM in [10], more than 100 µM in [8] and more than 100 µM in [9].
For the molecule `ClC/C=C/COC1CCCCO1` (configuration not stated), the TGI in assay [1] was more than 100 µM; in assay [2], more than 100 µM; in assay [3], 51.4 µM; in [4], more than 100 µM; in assay [5], more than 100 µM; in assay [6] it was more than 100 µM. Further, the TGI in [7], in assay [8] and in assay [9] was more than 100 µM in each case.
Turning to `COc1ccc(CN2c3ccccc3Sc3ccccc32)c(C(F)(F)F)c1`, the GI50 in assay [1] is 1.53 µM; in [2], 0.454 µM; in assay [3], 0.412 µM; in [4], 0.604 µM; in assay [5] it was 0.227 µM; in assay [6] it was 0.456 µM. Also, the figures for the GI50 in [7], in [8] and in assay [9] were 0.452 µM, 9.73 µM and 0.431 µM, respectively. Besides, the TGI in assay [1] was more than 100 µM; in [2] it was 26.5 µM; in assay [3] it was 13.9 µM; in [4] it was 35.6 µM; in [5], 44.9 µM; in assay [6] it was more than 100 µM. Besides, the TGI in assay [7] is 3.89 µM; in assay [8], more than 100 µM; in assay [9], 27.4 µM.
With `O=c1[nH]c2ccccc2nc1/C=C(\O)c1ccccc1O`, the TGI in assay [1], in assay [2], in assay [3], in assay [4], in assay [5] and in [6] was more than 100 µM in each case. Further, the TGI in [10], in assay [8] and in [9] was more than 100 µM throughout.

The record behind these values is PubChem BioAssay (NCI).
